Data reported in the OligoGym collection.
Bases are written 5' to 3'; sugars and linkages follow in the same order, as letters with counts (s phosphorothioate, o phosphodiester; PS: all linkages phosphorothioate). C may stand for cytosine or 5-methylcytosine; the collection does not tell. l = locked nucleic acid (LNA); d = 2'-deoxy (DNA)

Molecular target: HIF1A
Test: HeLa, 100 nM transfected, 24 h, mean of 3
Settings: ASO

Sequence	caspase activation (% of PBS control)
TGGCAAGCATCCTGTA (sugars l1 d1 l3 d6 l5, PS)	482
TGGCAAGCATCCTGTA (sugars l1 d1 l3 d7 l4, PS)	395
TGGCAAGCATCCTGTA (sugars l1 d1 l3 d8 l3, PS)	448
TGGCAAGCATCCTGTA (sugars l1 d1 l3 d9 l2, PS)	463
TGGCAAGCATCCTGTA (sugars l1 d1 l3 d10 l1, PS)	595
TGGCAAGCATCCTGTA (sugars l1 d2 l1 d7 l5, PS)	416
TGGCAAGCATCCTGTA (sugars l1 d2 l1 d8 l4, PS)	398
TGGCAAGCATCCTGTA (sugars l1 d2 l1 d9 l3, PS)	254
TGGCAAGCATCCTGTA (sugars l1 d2 l1 d10 l2, PS)	196
TGGCAAGCATCCTGTA (sugars l1 d2 l1 d11 l1, PS)	178
TGGCAAGCATCCTGTA (sugars l1 d2 l2 d6 l5, PS)	366
TGGCAAGCATCCTGTA (sugars l1 d2 l2 d7 l4, PS)	435
TGGCAAGCATCCTGTA (sugars l1 d2 l2 d8 l3, PS)	419
TGGCAAGCATCCTGTA (sugars l1 d2 l2 d9 l2, PS)	380
TGGCAAGCATCCTGTA (sugars l1 d2 l2 d10 l1, PS)	367
TGGCAAGCATCCTGTA (sugars l1 d3 l1 d6 l5, PS)	396
TGGCAAGCATCCTGTA (sugars l1 d3 l1 d7 l4, PS)	235
TGGCAAGCATCCTGTA (sugars l1 d3 l1 d8 l3, PS)	172
TGGCAAGCATCCTGTA (sugars l1 d3 l1 d9 l2, PS)	135
TGGCAAGCATCCTGTA (sugars l1 d3 l1 d10 l1, PS)	146

Sequence	caspase activation (% of PBS control)
TGGCAAGCATCCTGTA (sugars l1 d10 l1 d1 l3, PS)	348
TGGCAAGCATCCTGTA (sugars l1 d10 l1 d2 l2, PS)	261
TGGCAAGCATCCTGTA (sugars l1 d10 l1 d3 l1, PS)	199
TGGCAAGCATCCTGTA (sugars l1 d10 l2 d1 l2, PS)	444
TGGCAAGCATCCTGTA (sugars l1 d10 l2 d2 l1, PS)	346
TGGCAAGCATCCTGTA (sugars l1 d10 l3 d1 l1, PS)	381
TGGCAAGCATCCTGTA (sugars l1 d10 l5, PS)	480
TGGCAAGCATCCTGTA (sugars l1 d11 l1 d1 l2, PS)	315
TGGCAAGCATCCTGTA (sugars l1 d11 l1 d2 l1, PS)	190
TGGCAAGCATCCTGTA (sugars l1 d11 l2 d1 l1, PS)	231
TGGCAAGCATCCTGTA (sugars l1 d11 l4, PS)	346
TGGCAAGCATCCTGTA (sugars l1 d12 l1 d1 l1, PS)	150
TGGCAAGCATCCTGTA (sugars l1 d12 l3, PS)	217
TGGCAAGCATCCTGTA (sugars l1 d13 l2, PS)	170
TGGCAAGCATCCTGTA (sugars l1 d14 l1, PS)	201
TGGCAAGCATCCTGTA (sugars l2 d1 l1 d7 l5, PS)	427
TGGCAAGCATCCTGTA (sugars l2 d1 l1 d8 l4, PS)	393
TGGCAAGCATCCTGTA (sugars l2 d1 l1 d9 l3, PS)	520
TGGCAAGCATCCTGTA (sugars l2 d1 l1 d10 l2, PS)	501
